Test results: US6737383B1, “Herbicidal oxadiazolidines” (priority 1999, dated 2004)

Key:
[1] = tested on: spring wheat; assay: Test E spring wheat; format: in vivo, Triticum aestivum; conditions: Preemergence; for Spring Wheat plant response rating (0 to 100 scale): Rate 250 g/ha
[2] = tested on: annual bluegrass; assay: Test E annual bluegrass; format: in vivo, Poa annua; conditions: Postemergence; for Plant response rating, Annual bluegras: 0 to 100 scale; for Annual bluegras plant response rating: Rate 250 g/ha, 0 to 100 scale where 0 is no effect and 100 is complete control
Protocol: (§1) Compounds evaluated in this test were formulated in a non-phytotoxic solvent mixture which included a surfactant and applied to plants that were in the 1- to 4-leaf stage (postemergence application). A mixture of sandy loam soil and greenhouse potting mix in a 60:40 ratio was used for the postemergence test.
(§2) Plantings of these crops and weed species were adjusted to produce plants of appropriate size for the postemergence test. All plant species were grown using normal greenhouse practices. Crop and weed species include annual bluegrass (Poa annua), blackgrass (Alopecurus myosuroides), black nightshade (Solanum nigra), chickweed (Stellaria media), common poppy (Papaver rhoeas), deadnettle (Lamium amplexicaule), downy brome (Bromus tectorum), field violet (Viola arvensis), galium (Galium aparine), green foxtail (Setaria viridis), Italian ryegrass (Lolium multiflorum), jointed goatgrass (Aegilops cylindrica), kochia (Kochia scoparia), lambsquarters (Chenopodium album), littleseed canarygrass (Phalaris minor), rape (Brassica napus), redroot pigweed (Amaranthus retroflexus), Russian thistle (Salsola kali), scentless chamomile (Matricaria inodora), spring barley (Hordeum vulgare), sugar beet (Beta vulgaris), sunflower (Helianthus annuus), ivyleaf speedwell (Veronica hederaefolia), spring wheat (Triticum aestivum), winter wheat (Triticum aestivum), wild buckwheat (Polygonum convolvulus), wild mustard (Sinapis arvensis), wild oat (Avena fatua), windgrass (Apera spica-venti) and winter barley (Hordeum vulgare).
(§3) Treated plants and untreated controls were maintained in a greenhouse for approximately 21 to 28 days, after which all treated plants were compared to untreated controls and visually evaluated. […] A dash response (-) means no test result.

[3] = tested on: deadnettle; assay: Test E deadnettle; format: in vivo, Lamium amplexicaule; conditions: Postemergence; for Plant response rating, Deadnettle: 0 to 100 scale; for Deadnettle plant response rating: Rate 250 g/ha, 0 to 100 scale where 0 is no effect and 100 is complete control
Outline: (§4)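 For postemergence, application to 1- to 4-leaf plants growing in a 60:40 sandy loam–potting mix substrate. Formulation: non-phytotoxic solvent mixture plus surfactant. Untreated controls served as the reference for the visual rating after ~21–28 days.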

[4] = tested on: kochia; assay: Test E kochia; format: in vivo, Kochia scoparia; conditions: Postemergence; for Plant response rating, Kochia: 0 to 100 scale; for Kochia plant response rating: Rate 250 g/ha, 0 to 100 scale where 0 is no effect and 100 is complete control
Outline: as §4

[5] = tested on: littleseed canarygrass; assay: Test E littleseed canarygrass; format: in vivo, Phalaris minor; conditions: Preemergence; for LS canarygrass plant response rating (0 to 100 scale): Rate 250 g/ha
[6] = tested on: jointed goatgrass; assay: Test E jointed goatgrass; format: in vivo, Aegilops cylindrica; conditions: Preemergence; for Jointed goatgra plant response rating (0 to 100 scale): Rate 250 g/ha
[7] = tested on: deadnettle; assay: Test E deadnettle; format: in vivo, Lamium amplexicaule; conditions: Preemergence; for Deadnettle plant response rating (0 to 100 scale): Rate 250 g/ha
[8] = tested on: annual bluegrass; assay: Test E annual bluegrass; format: in vivo, Poa annua; conditions: Preemergence; for Annual bluegras plant response rating (0 to 100 scale): Rate 250 g/ha
[9] = tested on: green foxtail; assay: Test E green foxtail; format: in vivo, Setaria viridis; conditions: Postemergence; for Plant response rating, Green foxtail: 0 to 100 scale; for Green foxtail plant response rating: Rate 250 g/ha, 0 to 100 scale where 0 is no effect and 100 is complete control
Protocol: as §1, §2, §3

[10] = tested on: surinam grass; assay: Test C postemergence surinam grass; format: in vivo, Brachiaria decumbens; conditions: 0 to 100 scale, 0 no effect, 100 complete control
Protocol: as §1, with “grown for various periods of time before treatment” for “in the 1- to 4-leaf stage”
Plantings of these crops and weed species were adjusted to produce plants of appropriate size for the postemergence test. All plant species were grown using normal greenhouse practices. Crop and weed species include arrowleaf sida (Sida rhombifolia), barnyardgrass (Echinochloa crus-galli), cocklebur (Xanthium strumarium), common ragweed (Ambrosia elatior), corn (Zea mays), cotton (Gossypium hirsutum), eastern black nightshade (Solanum ptycanthum), fall panicum (Panicum dichotomiflorum), field bindweed (Convolvulus arvensis), giant foxtail (Setaria faberii), hairy beggarticks (Bidens pilosa), ivyleaf morningglory (Ipomoea hederacea), johnsongrass (Sorghum halepense), ladysthumb smartweed (Polygonum persicaria), lambsquarters (Chenopodium album), large crabgrass (Digitaria sanguinalis), purple nutsedge (Cyperus rotundus), redroot pigweed (Amaranthus retroflexus), soybean (Glycine max), surinam grass (Brachiaria decumbens), velvetleaf (Abutilon theophrasti) and wild poinsettia (Euphorbia heterophylla).
Treated plants and untreated controls were maintained in a greenhouse for approximately 14, to 21 days, after which all treated plants were compared to untreated controls and visually evaluated. Plant response ratings, summarized in Table C, were based upon a 0 to 100 scale where 0 was no effect and 100 was complete control. A dash response (−) means no test result.

[11] = tested on: fall panicum; assay: Test C postemergence fall panicum; format: in vivo, Panicum dichotomiflorum; conditions: 0 to 100 scale, 0 no effect, 100 complete control
Outline: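 Greenhouse postemergence test: compound applied in solvent/surfactant formulation to established plants; visual scoring 0–100 against untreated controls after roughly two to three weeks (14–21 days).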

[12] = tested on: wild mustard; assay: Test E wild mustard; format: in vivo, Sinapis arvensis; conditions: Postemergence; for Plant response rating, Wild mustard: 0 to 100 scale; for Wild mustard plant response rating: Rate 250 g/ha, 0 to 100 scale where 0 is no effect and 100 is complete control
Outline: as §4

[13] = tested on: downy brome; assay: Test E downy brome; format: in vivo, Bromus tectorum; conditions: Preemergence; for Downy brome plant response rating (0 to 100 scale): Rate 250 g/ha
[14] = tested on: spring barley; assay: Test E spring barley; format: in vivo, Hordeum vulgare; conditions: Preemergence; for Spring Barley plant response rating (0 to 100 scale): Rate 250 g/ha
[15] = tested on: winter barley; assay: Test E winter barley; format: in vivo, Hordeum vulgare; conditions: Postemergence; for Plant response rating, Barley (winter): 0 to 100 scale; for Barley (winter) plant response rating: Rate 250 g/ha, 0 to 100 scale where 0 is no effect and 100 is complete control
Protocol: as §1, §2, §3

[16] = tested on: littleseed canarygrass; assay: Test E littleseed canarygrass; format: in vivo, Phalaris minor; conditions: Postemergence; for Plant response rating, LS canarygrass: 0 to 100 scale; for LS canarygrass plant response rating: Rate 250 g/ha, 0 to 100 scale where 0 is no effect and 100 is complete control
Outline: as §4

[17] = tested on: common ragweed; assay: Test D common ragweed; format: in vivo, Ambrosia elatior; conditions: Postemergence, 0 to 100 scale
[18] = Rate 125 g/ha, 0 to 100 scale (0 no effect, 100 complete control)
[19] = Rate 500 g/ha, 0 to 100 scale where 0 is no effect and 100 is complete control
[20] = Rate 125 g/ha, 0 is no effect, 100 is complete control
[21] = Rate 500 g/ha, 0 is no effect, 100 is complete control
[22] = Rate 32 g/ha, 0 no injury, 100 complete control
[23] = Rate 64 g/ha, 0 no injury, 100 complete control
[24] = Rate 125 g/ha, 0 no injury, 100 complete control

CC(C)N(C(=O)n1oc(=O)n(C)c1=O)c1ccc(F)cc1 [Compound 138]
85: LS canarygrass plant response rating (0 to 100 scale) [5] | Plant response rating, Surinam grass ([10]; Rate 560 g/ha)
50: Deadnettle plant response rating [3]
100: Spring Wheat plant response rating (0 to 100 scale) [1]
55: Plant response rating, Spring Wheat [1, 18]
10: Annual bluegras plant response rating [2] | Plant response rating, Surinam grass ([10]; Rate 140 g/ha) | Plant response rating, LS canarygrass ([16]; Rate 125 g/ha) | LS canarygrass plant response rating [16]
70: Plant response rating, LS canarygrass [5, 18] | Deadnettle plant response rating (0 to 100 scale) [7] | Annual bluegras plant response rating (0 to 100 scale) [8] | Green foxtail plant response rating [9]
40: Plant response rating, Surinam grass ([10]; Rate 280 g/ha)
15: Plant response rating, Kochia ([4]; Rate 125 g/ha) | Plant response rating, Green foxtail ([9]; Rate 125 g/ha)
80: Jointed goatgra plant response rating (0 to 100 scale) [6]
60: Plant response rating Fall panicum ([11]; Rate 560 g/ha) | Plant response rating, Spring Barley [14, 18]
90: Plant response rating, Surinam grass ([10]; Rate 1120 g/ha) | Plant response rating Fall panicum ([11]; Rate 1120 g/ha) | Plant response rating, Downy brome [13, 18] | Downy brome plant response rating (0 to 100 scale) [13] | Spring Barley plant response rating (0 to 100 scale) [14]
65: Plant response rating, Jointed goatgra [6, 18] | Plant response rating, Deadnettle [7, 18]
0: Plant response rating, Annual bluegras ([2]; Rate 125 g/ha) | Plant response rating, Deadnettle ([3]; Rate 125 g/ha) | Kochia plant response rating [4] | Plant response rating Fall panicum ([11]; Rate 140 g/ha) | Plant response rating Fall panicum ([11]; Rate 280 g/ha) | Plant response rating, Wild mustard ([12]; Rate 125 g/ha) | Wild mustard plant response rating [12] | Plant response rating, Barley (winter) ([15]; Rate 125 g/ha) | Barley (winter) plant response rating [15]

CC(C)N(C(=O)n1oc(=O)n(C2CC2)c1=O)c1ccc(F)cc1 [Compound 242]
10: Annual bluegras plant response rating [2] | Plant response rating, Deadnettle [3, 20] | Deadnettle plant response rating [3] | Barley (winter) plant response rating [15] | Plant response rating, LS canarygrass [16, 20]
80: Plant response rating, Annual bluegras [2, 21] | Jointed goatgra plant response rating (0 to 100 scale) [6]
60: Spring Wheat plant response rating (0 to 100 scale) [1] | Plant response rating, Kochia [4, 20] | Plant response rating, Green foxtail ([9]; Rate 62 g/ha) | Green foxtail plant response rating [9] | Plant response rating, Spring Barley [14, 18]
70: Deadnettle plant response rating (0 to 100 scale) [7] | Plant response rating, Green foxtail [9, 21] | Plant response rating, Downy brome [13, 18] | Spring Barley plant response rating (0 to 100 scale) [14]
100: Plant response rating, Spring Wheat [1, 19] | Plant response rating, C. ragweed ([17]; Rate 250 g/ha) | Plant response rating, Deadnettle ([3]; Rate 62 g/ha) | Plant response rating, LS canarygrass [5, 18] | LS canarygrass plant response rating (0 to 100 scale) [5] | Plant response rating, LS canarygrass [5, 19] | Plant response rating, Deadnettle [7, 19] | Plant response rating, Annual bluegras [8, 18] | Annual bluegras plant response rating (0 to 100 scale) [8] | Plant response rating, Annual bluegras [8, 19] | Downy brome plant response rating (0 to 100 scale) [13] | Plant response rating, Downy brome [13, 19]
95: Plant response rating, Annual bluegras ([2]; Rate 62 g/ha)
85: Plant response rating, Surinam grass ([10]; Rate 560 g/ha) | Plant response rating Fall panicum ([11]; Rate 280 g/ha) | Plant response rating, Spring Barley [14, 19]
15: LS canarygrass plant response rating [16]
65: Plant response rating, Jointed goatgra [6, 18] | Plant response rating, LS canarygrass ([16]; Rate 62 g/ha)
0: Kochia plant response rating [4] | Plant response rating, Surinam grass ([10]; Rate 140 g/ha) | Plant response rating, Wild mustard ([12]; Rate 62 g/ha) | Plant response rating, Barley (winter) [15, 20]
30: Plant response rating, C. ragweed [17, 22] | Plant response rating, C. ragweed [17, 23] | Plant response rating, Green foxtail [9, 20] | Plant response rating Fall panicum ([11]; Rate 140 g/ha)
55: Plant response rating, Spring Wheat [1, 18]
20: Plant response rating, Annual bluegras [2, 20] | Plant response rating, Kochia ([4]; Rate 62 g/ha) | Plant response rating, Kochia [4, 21] | Plant response rating, Wild mustard [12, 20] | Wild mustard plant response rating [12] | Plant response rating, Barley (winter) ([15]; Rate 62 g/ha) | Plant response rating, Barley (winter) [15, 21]
5: Plant response rating, Wild mustard [12, 21]
90: Plant response rating, C. ragweed [17, 24] | Plant response rating, Jointed goatgra [6, 19] | Plant response rating, Surinam grass ([10]; Rate 1120 g/ha) | Plant response rating Fall panicum ([11]; Rate 560 g/ha) | Plant response rating Fall panicum ([11]; Rate 1120 g/ha)
50: Plant response rating, C. ragweed ([17]; Rate 16 g/ha, 0 no injury, 100 complete control) | Plant response rating, Deadnettle [3, 21] | Plant response rating, LS canarygrass [16, 21]
40: Plant response rating, Surinam grass ([10]; Rate 280 g/ha)

CC(C)N(C(=O)n1oc(=O)n(C2CCCCCC2)c1=O)c1ccc(F)cc1F [Compound 342]
100: Plant response rating, C. ragweed ([17]; Rate 250 g/ha)
0: Plant response rating, C. ragweed [17, 22] | Plant response rating, C. ragweed [17, 23] | Plant response rating, C. ragweed [17, 24]
